This passage reports Ki results from ChEMBL document CHEMBL1130937, “Stereoselective synthesis of a novel and bifunctional endothelin antagonist, IRL 3630” (Bioorg Med Chem Lett, 1998).

A word on the Ki: it is the dissociation constant of the complex between target and ligand, obtained from inhibition or displacement. A higher Ki goes with a looser hold on the target.

The target of test [1] is T1, Endothelin receptor type B (Homo sapiens, UniProt P24530).
T1 sequence (P24530 whole entry): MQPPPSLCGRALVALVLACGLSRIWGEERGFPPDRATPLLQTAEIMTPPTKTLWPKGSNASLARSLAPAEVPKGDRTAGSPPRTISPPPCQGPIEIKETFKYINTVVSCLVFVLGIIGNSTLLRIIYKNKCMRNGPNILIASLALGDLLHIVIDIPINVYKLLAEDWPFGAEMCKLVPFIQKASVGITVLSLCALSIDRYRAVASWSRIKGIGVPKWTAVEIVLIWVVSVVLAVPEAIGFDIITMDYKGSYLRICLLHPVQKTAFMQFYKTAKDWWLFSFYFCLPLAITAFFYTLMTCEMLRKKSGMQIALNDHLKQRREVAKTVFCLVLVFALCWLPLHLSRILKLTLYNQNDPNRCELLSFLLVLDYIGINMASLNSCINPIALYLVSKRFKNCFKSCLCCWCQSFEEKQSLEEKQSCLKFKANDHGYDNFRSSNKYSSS
Briefly: Compound was tested for the binding affinity against Endothelin B receptor.

The target in another test is T2, Endothelin-1 receptor (Homo sapiens, UniProt P25101).
T2 sequence (P25101 whole entry): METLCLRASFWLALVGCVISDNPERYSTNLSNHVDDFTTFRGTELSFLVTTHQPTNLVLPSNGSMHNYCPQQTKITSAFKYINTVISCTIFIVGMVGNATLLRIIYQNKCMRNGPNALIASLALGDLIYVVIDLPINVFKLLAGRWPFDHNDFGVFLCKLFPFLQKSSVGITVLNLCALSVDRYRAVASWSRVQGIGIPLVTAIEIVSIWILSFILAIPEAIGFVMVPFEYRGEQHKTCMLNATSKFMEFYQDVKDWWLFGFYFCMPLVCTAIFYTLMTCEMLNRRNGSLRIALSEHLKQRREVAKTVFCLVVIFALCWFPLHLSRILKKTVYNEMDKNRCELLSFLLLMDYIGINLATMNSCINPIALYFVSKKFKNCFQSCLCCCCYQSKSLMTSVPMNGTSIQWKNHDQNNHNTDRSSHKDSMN
Briefly: Compound was tested for the binding affinity against Endothelin A receptor.

Each structure is given as a SMILES string.

Regarding `CCCCS(=O)(=O)NC(=O)[C@H](NC(=O)[C@@H](Cc1ccc(-c2ccno2)cc1)N(C)C(=O)c1cc(C)cc(C)c1)C(C)C`, the figures for the Ki (in test [1]; on Endothelin-1 receptor) were 0.024 µM and 0.85 µM, respectively.

In the case of `CCCCS(=O)(=O)NC(=O)[C@@H](NC(=O)[C@H](Cc1ccc(-c2ccno2)cc1)N(C)C(=O)c1cc(C)cc(C)c1)C(C)C`, the Ki in test [1] came to 1.2 µM; on Endothelin-1 receptor, 6.8 µM. At Endothelin-1 receptor, `CCCCS(=O)(=O)NC(=O)[C@@H](NC(=O)[C@@H](Cc1ccc(-c2ccno2)cc1)N(C)C(=O)c1cc(C)cc(C)c1)C(C)C` yielded a Ki of 0.0015 µM. For `CCCCS(=O)(=O)NC(=O)[C@H](NC(=O)[C@H](Cc1ccc(-c2ccno2)cc1)N(C)C(=O)c1cc(C)cc(C)c1)C(C)C`, the Ki in test [1] was found to be 1.2 µM; at Endothelin-1 receptor, 27 µM.
